Experimental data reported in US7285564B2, “Substituted 4-amino-1-(pyridylmethyl)piperidine and related compounds” (Theravance, Inc., priority 2002, dated 2007).

Target: T1, hM2 receptor (Homo sapiens, UniProt P08172)
T1 construct: expressed in transfected cells; membranes prepared
T1 sequence (P08172 1-466): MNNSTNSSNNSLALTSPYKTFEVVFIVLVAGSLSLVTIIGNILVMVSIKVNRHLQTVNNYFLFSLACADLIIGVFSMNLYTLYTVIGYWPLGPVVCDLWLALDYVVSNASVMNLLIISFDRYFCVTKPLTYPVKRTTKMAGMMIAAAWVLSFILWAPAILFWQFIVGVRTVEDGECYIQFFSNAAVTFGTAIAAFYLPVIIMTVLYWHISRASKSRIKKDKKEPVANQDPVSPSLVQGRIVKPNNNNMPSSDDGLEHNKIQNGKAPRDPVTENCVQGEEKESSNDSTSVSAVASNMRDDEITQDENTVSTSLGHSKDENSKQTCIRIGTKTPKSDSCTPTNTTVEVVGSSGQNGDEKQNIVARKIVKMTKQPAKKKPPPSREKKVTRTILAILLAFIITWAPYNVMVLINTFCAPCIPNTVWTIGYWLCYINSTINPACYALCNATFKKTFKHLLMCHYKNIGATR
Experiment: Blockade of agonist-mediated GTPγ[35S] binding
Type: biochemical
Settings: membranes of CHO-K1 cells expressing hM2; read-out: Ki for blockade of carbachol-mediated GTPγ[35S] binding
Method: In this assay, the functional potency of a test compound was determined by measuring the ability of the test compound to block carbachol-stimulated GTPγ[^35S] binding in CHO-K1 cells expressing the hM2 receptor.
CHO-K1 cells stably expressing the hM2 muscarinic receptor were grown in medium consisting of Hams F-12 media supplemented with 10% Fetal Bovine Serum and 500 μg/ml of Geneticin (G-418). Cells were incubated in a 5% CO2, humidified incubator at 37° C. Cells were grown to confluence and harvested with dPBS+2 mM EDTA and pelleted by centrifugation at 250×g for 10 minutes.
Cells from the centrifuged pellets were resuspended in homogenization buffer (10 mM HEPES, 10 mM EDTA, pH 7 at 4° C.). […]
To determine the ability of a test compound to inhibit carbachol-stimulated GTPγ[^35S] binding, the following was added to each well of 96 well plates: 25 μL of assay buffer with […] and GDP, 25 μL of diluted test compound (prepared as described above), and 25 μL CHO cell membranes expressing the hM2 receptor. […] After the pre-incubation period, 25 μL of carbachol at the final concentration of its EC90 value determined earlier in the day was added to each plate. […]
Test compound potency (IC50) was determined using iterative curve fitting (GraphPad Prism 3.0 software; single site competition curve). […]

## COc1ccncc1CN1CCC(N(CCCCCCCN2CC[C@@H](C(C(N)=O)(c3ccccc3)c3ccccc3)C2)C(C)C)CC1 [Example 1]
  Ki: < 1 nM
